Results taken from patent US12343336B2, “Increasing cancer cells' sensitivity to tumor treating fields (TTFields) by inhibiting IL11 activity” (Novocure GmbH, priority 2019, dated 2025).

Key:
N1S1 tumors = assay: Fibrosis evaluation (score and Masson Trichrome morphometry) of treated N1S1 tumors; format: in vivo, SD rats
Description: (§1) Male SD rats, 8-weeks of age (Envigo Ltd, Israel), were anesthetized by I.P. injection of Ketamine (75 mg/kg) and Xylazine (10 mg/kg)(FIG. 2). After loss of postural reflexes, the fur was removed from the upper abdominal area using a trimmer. The left lobe of the liver was surgically exposed and 10 μl of cell suspension containing 50,000 N1-S1 hepatocellular carcinoma cells in equal volumes of serum free medium and Matrigel (CORNING, Bedford, MA) were injected directly into the left lobe using a syringe with a 31-gauge needle. The peritoneum and abdominal muscles incisions were closed using surgical sutures and the skin were close by clips. The rats were allowed to recover for 6 days.
(§2) On day 6 all animals underwent a first MRI scan and were randomly divided into the following treatment groups:
(§3) Group I—rats were treated with sham heating electrodes and vehicle injection.
(§4) Group II—rats were treated with 150 kHz TTFields and vehicle injection.
Group III—rats were treated with 10 mg/kg/day Sorafenib. […]
(§5) On day 7, electrodes (TTFields or sham heating) were placed on the animals. […] Tumor volume were determined based on MRI scans on days […] after tumor implantation. […] Tumor volume was measured by manual segmentation of the tumor using ITK-SNAP version 3.6.0-rc1 free software. […]
Tumors were harvested for histological evaluation of the grade of fibrosis using a semi-quantitative evaluation scale. […] Masson Trichrome stained sections were analyzed for fibrosis, using a scoring grade scale and digital morphometry.
H&E stained sections were examined by one pathologist and scored by a semi-quantitative scoring system for the presence of pathological changes (FIGS. 3 and 3A), as follows: • Grade 0: no signs of fibrosis • Grade 1: very mild signs of fibrosis • Grade 2: mild signs of fibrosis • Grade 3: moderate signs of fibrosis • Grade 4: High grade of fibrosis • Grade 5: Very high grade of fibrosis […]
The percent of the stained areas (FIG. 3: top-right) out of the whole tissue (FIG. 3: top-right+bottom-left) was calculated as shown in FIG. 4.

[1] = tested on: N1S1 liver carcinoma cells; assay: N1S1 tumor volume by MRI in rats treated with TTFields and/or sorafenib; format: in vivo, Sprague Dawley rats
Description: Tumor volume was determined by MRI. […] In this experiment, the volume of the tumor was measured using MRI on day 6 (one day before treatment start) and day 14 (one day after the end of treatment); and each data point in FIG. 1A represents the volume of the tumor on day 14 divided by the volume of the tumor on day 6. Thus, numbers greater than 1 represent growth in the tumor volume, and numbers smaller than 1 represent a tumor that has shrunk between day 6 and day 14. In this figure, “*” represents p<0.1, “**” represents p<0.01, and “****” represents p<0.0001. […] FIG. 1B represents the volume of the tumor.
as §1, §2, §3, §4
Group III—rats were treated with 10 mg/kg/day Sorafenib.
Group IV—rats were treated with 150 kHz TTFields and 10 mg/kg/day Sorafenib.
as §5, with “animals. The animals were treated for 6 days with TTFields or sham heat.” for “animals.”

CNC(=O)c1cc(Oc2ccc(NC(=O)Nc3ccc(Cl)c(C(F)(F)F)c3)cc2)ccn1 [sorafenib]
fibrosis score (N1S1 tumors; TTFields in combination with sorafenib, relative to TTFields alone, evaluated by a pathologist): significantly reduced | reduction in fibrotic area compared to control group (N1S1 tumors; combined treatment of 150 kHz TTFields and sorafenib 10 mg/kg/day): 20.8% | decrease in fibrotic area relative to control (N1S1 tumors; sorafenib alone, 10 mg/kg/day, morphometry of fibrosis percent): 30.4% | tumor volume ([1]; combination of TTFields (2.86 V/cm) and sorafenib (10 mg/kg/day)): synergistic decrease | decrease in tumor volume ([1]; combination of TTFields and sorafenib, N1S1 tumors, FIG. 1): ≥ 10 fold | fold increase in tumor volume (day 14 / day 6) ([1]; combination of TTFields at 150 kHz and sorafenib 10 mg/kg/day IP, MRI): significantly reduced
